Results as given in article PMC6509344, “Novel CMKLR1 Inhibitors for Application in Demyelinating Disease” (Scientific Reports, 2019).
Structures can show the parent of a compound that is named as a salt. Where two headings read alike, the source gives them in different places.

Tests used:
CMKLR1 = molecular target: T1, CMKLR1 (Homo sapiens, UniProt Q99788); assay: β-arrestin recruitment assay (chemerin-dependent β-arrestin2 signaling); format: cell-based; details: for IC50: CMKLR1-CHO-β-Arrestin cells, 20 nM chemerin, read-out: β-arrestin IC50 mean ± SEM (n)
T1 construct: host or cells: CHO-K1 (PathHunter CMKLR1 β-Arrestin cells)
T1 sequence (Q99788 1-373): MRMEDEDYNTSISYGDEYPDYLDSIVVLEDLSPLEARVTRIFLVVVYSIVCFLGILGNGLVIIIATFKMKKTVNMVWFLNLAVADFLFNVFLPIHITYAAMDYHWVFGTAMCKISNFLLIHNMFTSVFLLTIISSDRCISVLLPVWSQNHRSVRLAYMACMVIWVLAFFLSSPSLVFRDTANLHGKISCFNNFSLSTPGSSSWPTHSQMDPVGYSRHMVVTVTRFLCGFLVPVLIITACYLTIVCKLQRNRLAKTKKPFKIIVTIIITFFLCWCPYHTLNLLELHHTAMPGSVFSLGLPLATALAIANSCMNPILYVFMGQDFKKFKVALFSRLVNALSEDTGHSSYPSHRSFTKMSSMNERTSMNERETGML
Experimental: DiscoverX PathHunter® CHO-K1 CMKLR1 β-Arrestin Cells were grown in RPMI lacking phenol red (Gibco, Life Technologies), supplemented with L-glutamine, penicillin-streptomycin, sodium pyruvate, non-essential amino acid, BCS, hygromycin, and G418-sulfate. CMKLR1-CHO-β-Arrestin cells were seeded in 96 well plates at 1 × 10^5 cell/ml- 100 ul/well and incubated overnight at 37 °C, 5% CO2. […] (α-NETA and test compounds were reconstituted in DMSO; final DMSO concentration in each well was 0.1%). After 10 min, 5 ul of recombinant human chemerin (R&D Systems) at a final concentration of 20 nM was added to each well. Plates were incubated for 90 min at 37 °C, 5% CO2. Media was then removed and 50 ul of chemiluminescent substrate (Tropix Gal-Screen, Applied Biosciences) was added. The plate was incubated for 1 hr at RT and luminescence was detected using the SpectraMax M5 plate reader (Molecular Devices). For each independent trial (single replicate dose curves), data was normalized to the maximum signal per compound tested and an IC50 value was generated using GraphPad Prism software. The average IC50 value for n independent trials (as specified in the table) is reported.

(hu)CMKLR1 L1.2 cells = assay: Chemotaxis assay toward huChemerin; format: cell-based, human; details: for IC50: (hu)CMKLR1 L1.2 cells migrating toward huChemerin, 2 h, read-out: Chemotaxis IC50 mean ± SEM (n)
Experimental: (hu)CMKLR1 transfectants (generated in L1.2 pre-B cell lymphoma cells) were grown in RPMI 1640 (Corning) supplemented with L-glutamine, penicillin-streptomycin, and 10% BCS and G418-sulfate (KSE Scientific). DiscoverX PathHunter® CHO-K1 CMKLR1 β-Arrestin Cells were grown in RPMI lacking phenol red (Gibco, Life Technologies), supplemented with L-glutamine, penicillin-streptomycin, sodium pyruvate, non-essential amino acid, BCS, hygromycin, and G418-sulfate.
(hu)CMKLR1 L1.2 cells at 1 × 10^6 cell/ml were treated with 5 mM sodium butyrate (Sigma) overnight to induce hCMKLR1 expression. The next day, cells were washed in migration media (RPMI + 0.5%BSA) and resuspended at 1.5–3 × 10^6 cell/ml. Cells were pre-incubated at RT for 10 min with various concentrations of α-NETA or test compounds (α-NETA and test compounds were reconstituted in DMSO; final DMSO concentration in each well was 0.1%). 100 ul of cells were added to the upper chamber of a 24-well transwell plate (5 um pore size, Costar). Cells were allowed to migrate toward huChemerin ([…] in migration media, bottom chamber) for 2 h, 37 °C, 5% CO2. The number of migrated cells was quantified by flow cytometry (BD LSR2), and live cells were distinguished based on FSC × SSC properties. The background for this assay was typically low with 0 cells migrating to the buffer alone. For each independent trial, data was normalized to the maximum migration per compound tested and an IC50 value was generated using GraphPad Prism software. The average IC50 value for n independent trials (as specified in the table) is reported.

C57BL/6 mice with EAE = assay: Experimental autoimmune encephalomyelitis (EAE), MOG35–55/CFA immunization; format: in vivo, mouse; details: for Day of onset (Mean ± SEM) / Maximum Score (Mean ± SEM) / AUC (Mean ± SEM) of clinical score: Table 4, 10 mg/kg daily to D21, n = 8; for Maximum Score (Mean ± SEM): clinical score 0-5; for AUC (Mean ± SEM) of clinical score: mean clinical score x day
Experimental: C57BL/6 mice were purchased from The Jackson Laboratory. […] Animal experiments were conducted in accordance with approved Veterans Affairs, National Institutes of Health, and Institutional Animal Care and Use Committee guidelines.
CFA consisted of 5 mg/ml mTB (Mycobacterium-tuberculosis H37 Ra, BD Difco) in IFA (Incomplete Freund’s Adjuvant, Sigma). MOG35–55 was reconstituted at 2 mg/ml in PBS. Mice also received 200 ng pertussis toxin (List Biological Laboratories, Inc) by i.p. injection at the time of immunization and two days later. […] For a direct comparison to α-NETA, the DMF and compound doses were also 10 mg/kg in 10% captisol. Mice were monitored daily for clinical disease and scored (0 = normal/healthy, 1 = limp tail, 2 = hindlimb weakness, 3 = hindlimb paralysis, 4 = hindlimb and forelimb paralysis, 5 = moribund/dead).

[1] = Table 3 quaternary ammonium salts

IC50 (CMKLR1; Table 2 tertiary amines) [µM]	IC50 ((hu)CMKLR1 L1.2 cells) [µM]	IC50 (CMKLR1; [1]) [µM]	Structure (SMILES)	further results
> 100	–	–	COc1ccccc1C(=O)CCN(C)C [Compound 16]	–
–	7.2	2.9 ± 1.6	COc1ccccc1C(=O)CC[N+](C)(C)C.[I-] [Compound 26]	activity in chemotaxis assay (in words) ((hu)CMKLR1 L1.2 cells): highly active; activity in β-arrestin2 assay (in words) (CMKLR1): highly active
–	24.1	2.5 ± 0.9	C[N+](C)(C)CCC(=O)c1ccc2ccccc2c1 [Compound 23]	–
–	4.5 ± 1.5	1.9 ± 0.2	COc1ccc(C(=O)CC[N+](C)(C)C)cc1.[I-] [Compound 27]	activity in chemotaxis assay (in words) ((hu)CMKLR1 L1.2 cells): highly active; Day of onset (Mean ± SEM) (C57BL/6 mice with EAE): 16.0 ± 0.9; Maximum Score (Mean ± SEM) (C57BL/6 mice with EAE): 2.1 ± 0.1^¶; AUC (Mean ± SEM) of clinical score (C57BL/6 mice with EAE): 24.3 ± 4.2; activity in β-arrestin2 assay (in words) (CMKLR1): highly active
6.2 ± 2.5	–	–	COc1ccc2ccccc2c1C(=O)CCN(C)C [Compound 6]	Day of onset (Mean ± SEM) (C57BL/6 mice with EAE): 14.5 ± 0.4; Maximum Score (Mean ± SEM) (C57BL/6 mice with EAE): 2.4 ± 0.2; AUC (Mean ± SEM) of clinical score (C57BL/6 mice with EAE): 25.2 ± 4.0
10.3 ± 4.5	–	–	COc1cccc(OC)c1C(=O)CCN(C)C [Compound 19]	–
–	20 ± 6.2	1.5 ± 0.3	COc1ccc2cc(C(=O)CC[N+](C)(C)C)ccc2c1 [Compound 32]	–
–	10.7	0.6 ± 0.3	COc1ccc2ccccc2c1C(=O)CC[N+](C)(C)C [Compound 33]	–
–	> 100	5.6 ± 0.7	C[N+](C)(C)CCC(=O)c1ccccc1.[I-] [Compound 24]	activity in chemotaxis assay (in words) ((hu)CMKLR1 L1.2 cells): did not show any activity
–	–	–	COC(=O)/C=C/C(=O)OC [Tecfidera, dimethyl fumarate, reference compound]	day of EAE onset (mean ± SEM) (C57BL/6 mice with EAE; Fig. 1 study, 10 mg/kg daily in 10% captisol, s.c., d29 onset assumed for 2 α-NETA mice): 14 ± 2 days
–	14.6 ± 4.8	3.8 ± 1.7	COc1cccc(C(=O)CC[N+](C)(C)C)c1 [Compound 28]	–
> 100	–	–	CN(C)CCC(=O)C1CCCCC1 [Compound 20]	activity in β-arrestin2 assay (in words) (CMKLR1): complete loss of activity
71.3	–	–	CCN(CC)CCC(=O)c1ccc2ccccc2c1 [Compound 8]	–
–	–	–	C[N+](C)(C)CCS(=O)(=O)c1ccccc1 [Compound 35]	activity in β-arrestin2 assay (in words) (CMKLR1): inactive
> 100	–	–	COc1ccc(C(=O)CCN(C)C)cc1 [Compound 17]	–
–	> 100	6 ± 2.2	COc1cc(OC)cc(C(=O)CC[N+](C)(C)C)c1 [Compound 31]	–
–	> 100	11.9	C[N+](C)(C)CCC(=O)C1CCCCC1 [Compound 25]	–
–	6.8	2.1 ± 1.1	COc1cccc(OC)c1C(=O)CC[N+](C)(C)C.[I-] [Compound 30]	activity in chemotaxis assay (in words) ((hu)CMKLR1 L1.2 cells): highly active; activity in β-arrestin2 assay (in words) (CMKLR1): highly active
–	17.4 ± 2.2	4.8 ± 1.6	COc1ccc(C(=O)CC[N+](C)(C)C)c(OC)c1 [Compound 29]	–
39.6	–	–	CCN(C)CCC(=O)c1ccc2ccccc2c1 [Compound 9]	–
44.5	–	–	CCCCN(C)CCC(=O)c1ccc2ccccc2c1 [Compound 10]	–
64	–	–	COc1cccc(C(=O)CCN(C)C)c1 [Compound 18]	–
18.5	–	–	CN(C)CCC(=O)c1ccc2ccccc2c1 [Compound 7]	–
> 100	–	–	COc1ccc2cc(C(=O)CCN(C)C)ccc2c1 [Compound 11]	–
